Numbered stars: 1 amine (or outer) side, 2 acyl side, 3 side chain; on linkers, the order of the positions; unused ones are H or OH. Bridge positions count the residues as written; N and C are the ends. Square brackets hold non-standard residues; d marks the D form. Side chains are listed from the residue outwards. Peptide text beside a SMILES is read from it. I, II: the chains in the order shown. * marks the point of attachment. C18 diacid = O=C(O)CCCCCCCCCCCCCCCCC(=O)*; γGlu = O=C(O)[C@H](CCC(=O)[*:2])N[*:1]; Ac4c = NC1(C(=O)O)CCC1; AEEA = NCCOCCOCC(=O)O; Aib = CC(C)(N)C(=O)O
Legend:
human GLP-1 receptor = target: T1, human GLP-1 receptor (Homo sapiens, UniProt P43220); experiment: GLP-1 receptor binding, 125I-GLP-1 displacement SPA on isolated membranes; conditions: displacement of 125I-GLP-1 from membranes; read-out: IC50 GLP-1R
T1 construct: expressed in transfected cells; host or cells: BHK cells (parent BHKTS13), clone FCW467-12A/KZ10-1, with CRE luciferase
T1 sequence (P43220 24-463): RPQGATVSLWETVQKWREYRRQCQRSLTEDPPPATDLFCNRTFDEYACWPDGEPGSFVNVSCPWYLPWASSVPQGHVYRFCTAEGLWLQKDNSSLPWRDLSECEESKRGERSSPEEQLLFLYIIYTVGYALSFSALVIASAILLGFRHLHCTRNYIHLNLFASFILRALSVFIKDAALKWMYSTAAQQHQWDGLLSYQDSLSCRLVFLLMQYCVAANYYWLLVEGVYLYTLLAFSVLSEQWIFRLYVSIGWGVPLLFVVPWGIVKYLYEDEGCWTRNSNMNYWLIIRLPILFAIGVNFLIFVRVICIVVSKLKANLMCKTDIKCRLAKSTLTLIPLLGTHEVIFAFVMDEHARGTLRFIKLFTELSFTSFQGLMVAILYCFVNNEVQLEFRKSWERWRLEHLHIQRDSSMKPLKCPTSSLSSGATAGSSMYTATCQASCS
Summary of the method: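 SPA displacement of 125I-GLP-1(7-36)NH2 from membranes of BHK cells expressing human GLP-1 receptor, with WGA beads, in 50 mM HEPES, 5 mM EGTA, 5 mM MgCl2, 0.005% Tween 20, pH 7.4. Incubated 2 h at 30°C; IC50 by non-linear regression, run at ≤0.001% or 2.0% final serum albumin.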

[1] = Chemical stability assessment by RP-UPLC; type: physicochemical; conditions: 333 μM, 8 mM phosphate buffer pH 7.3, 37° C. vs 5° C.
Summary of the method: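 Purity loss = (purity after 14 days at 5° C. minus that at 37° C.) relative to the 5° C. value, purity being main-peak area % by RP-UPLC with UV at 215 nm. Samples were 333 μM in 8 mM phosphate, pH 7.3; gradient adjusted for outlying retention times.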

Compound	IC50 (human GLP-1 receptor) [pM]	Purity loss; 14 days at 37° C. [1] [%]
CC(C)C[C@H](NC(=O)[C@H](Cc1ccc(O)cc1)NC(=O)[C@H](CCCCN)NC(=O)[C@H](CO)NC(=O)[C@H](CC(C)C)NC(=O)[C@H](CC(=O)O)NC(=O)[C@H](CO)NC(=O)[C@@H](NC(=O)[C@H](Cc1ccccc1)NC(=O)[C@@H](NC(=O)CNC(=O)[C@H](CCC(N)=O)NC(=O)C1(NC(=O)[C@@H](N)Cc2c[nH]cn2)CCC1)[C@@H](C)O)[C@@H](C)O)C(=O)N[C@@H](CCC(=O)O)C(=O)N[C@@H](CO)C(=O)N[C@@H](CCCCN)C(=O)N[C@@H](CCCNC(=N)N)C(=O)N[C@@H](C)C(=O)N[C@@H](CCCNC(=N)N)C(=O)N[C@@H](CCC(=O)O)C(=O)N[C@@H](Cc1ccccc1)C(=O)N[C@H](C(=O)N[C@@H](CCC(N)=O)C(=O)N[C@@H](Cc1c[nH]c2ccccc12)C(=O)N[C@@H](CC(C)C)C(=O)N[C@@H](CC(C)C)C(=O)N[C@@H](CCCCNC(=O)CNC(=O)[C@H](CO)NC(=O)[C@H](CCC(=O)O)NC(=O)CNC(=O)[C@H](CO)NC(=O)CC[C@H](NC(=O)CC[C@H](NC(=O)CCCCCCCCCCCCCCCCC(=O)O)C(=O)O)C(=O)O)C(=O)N[C@H](C(N)=O)[C@@H](C)O)C(C)C [Example 36, N^ε28-[2-[[(2S)-2-[[(2S)-4-carboxy-2-[[2-[[(2S)-2-[[(4S)-4-carboxy-4-[[(4S)-4-carboxy-4-(17-carboxyheptadecanoylamino)butanoyl]amino]butanoyl]amino]-3-hydroxypropanoyl]amino]acetyl]amino]butanoyl]amino]-3-hydroxypropanoyl]amino]acetyl]-[Acb2,Leu10,Glu15,Lys17, Arg20,Glu21,Leu27,Lys28]-Glucagon amide] (I: H-H[Ac4c]QGTFTSDLSKYLESKRAREFVQWLLKT-NH2 / II: {C18 diacid-γGlu-γGlu}-SGESG; amide I:28-II:C; N-terminus assumed)	200	2
CC(C)C[C@H](NC(=O)[C@H](Cc1ccc(O)cc1)NC(=O)[C@H](CCCCN)NC(=O)[C@H](CO)NC(=O)[C@H](CC(C)C)NC(=O)[C@H](CC(=O)O)NC(=O)[C@H](CO)NC(=O)[C@@H](NC(=O)[C@H](Cc1ccccc1)NC(=O)[C@@H](NC(=O)CNC(=O)[C@H](CCC(N)=O)NC(=O)C(C)(C)NC(=O)[C@@H](N)Cc1c[nH]cn1)[C@@H](C)O)[C@@H](C)O)C(=O)N[C@@H](CC(=O)O)C(=O)N[C@@H](C)C(=O)N[C@@H](CCCNC(=N)N)C(=O)N[C@@H](CCCNC(=N)N)C(=O)N[C@@H](C)C(=O)N[C@@H](CCCNC(=N)N)C(=O)N[C@@H](CCC(=O)O)C(=O)N[C@@H](Cc1ccccc1)C(=O)N[C@H](C(=O)N[C@@H](CCC(N)=O)C(=O)N[C@@H](Cc1c[nH]c2ccccc12)C(=O)N[C@@H](CC(C)C)C(=O)N[C@@H](CC(C)C)C(=O)N[C@@H](CC(N)=O)C(=O)N[C@@H](CCCCNC(=O)CC[C@H](NC(=O)CC[C@H](NC(=O)COCCOCCNC(=O)CC[C@H](NC(=O)CCCCCCCCCCCCCCCCC(=O)O)C(=O)O)C(=O)O)C(=O)O)C(N)=O)C(C)C [Example 39, N^ε29-[(4S)-4-carboxy-4-[[(4S)-4-carboxy-4-[[2-[2-[2-[[(4S)-4-carboxy-4-(17-carboxyheptadecanoylamino)butanoyl]amino]ethoxy]ethoxy]acetyl]amino]butanoyl]amino]butanoyl]-[Aib2,Leu10,Ala16,Arg20,Glu21,Leu27,Lys29]-Glucagon amide] (H-H[Aib]QGTFTSDLSKYLDARRAREFVQWLLNK([γGlu-γGlu-AEEA-γGlu-C18 diacid])-NH2; N-terminus assumed)	300	3
CC(C)C[C@H](NC(=O)[C@H](CC(C)C)NC(=O)[C@H](Cc1c[nH]c2ccccc12)NC(=O)[C@H](CCC(N)=O)NC(=O)[C@@H](NC(=O)[C@H](Cc1ccccc1)NC(=O)[C@H](CCC(=O)O)NC(=O)[C@H](CCCNC(=N)N)NC(=O)[C@H](C)NC(=O)[C@H](CCCNC(=N)N)NC(=O)[C@H](CCCNC(=N)N)NC(=O)[C@H](CO)NC(=O)[C@H](CCC(=O)O)NC(=O)[C@H](CC(C)C)NC(=O)[C@H](Cc1ccc(O)cc1)NC(=O)[C@H](CCCCN)NC(=O)[C@H](CO)NC(=O)[C@H](CC(C)C)NC(=O)[C@H](CC(=O)O)NC(=O)[C@H](CO)NC(=O)[C@@H](NC(=O)[C@H](Cc1ccccc1)NC(=O)[C@@H](NC(=O)CNC(=O)[C@H](CCC(N)=O)NC(=O)C(C)(C)NC(=O)[C@@H](N)Cc1c[nH]cn1)[C@@H](C)O)[C@@H](C)O)C(C)C)C(=O)N[C@@H](CC(N)=O)C(=O)N[C@@H](CCCCNC(=O)CC[C@H](NC(=O)CC[C@H](NC(=O)COCCOCCNC(=O)CC[C@H](NC(=O)CCCCCCCCCCCCCCCCC(=O)O)C(=O)O)C(=O)O)C(=O)O)C(N)=O [Example 40, N^ε29-[(4S)-4-carboxy-4-[[(4S)-4-carboxy-4-[[2-[2-[2-[[(4S)-4-carboxy-4-(17-carboxyheptadecanoylamino)butanoyl]amino]ethoxy]ethoxy]acetyl]amino]butanoyl]amino]butanoyl]-[Aib2,Leu10,Glu15,Arg20,Glu21,Leu27,Lys29]-Glucagon amide] (H-H[Aib]QGTFTSDLSKYLESRRAREFVQWLLNK([γGlu-γGlu-AEEA-γGlu-C18 diacid])-NH2; N-terminus assumed)	400	2

Further compounds by falling IC50 (human GLP-1 receptor), results first:

IC50 (human GLP-1 receptor) [pM]	Purity loss; 14 days at 37° C. [1] [%]	Compound
300	1	CC(C)C[C@H](NC(=O)[C@H](Cc1ccc(O)cc1)NC(=O)[C@H](CCCCN)NC(=O)[C@H](CO)NC(=O)[C@H](CC(C)C)NC(=O)[C@H](CC(=O)O)NC(=O)[C@H](CO)NC(=O)[C@@H](NC(=O)[C@H](Cc1ccccc1)NC(=O)[C@@H](NC(=O)CNC(=O)[C@H](CCC(N)=O)NC(=O)C(C)(C)NC(=O)[C@@H](N)Cc1c[nH]cn1)[C@@H](C)O)[C@@H](C)O)C(=O)N[C@@H](CCC(=O)O)C(=O)N[C@@H](CO)C(=O)N[C@@H](CCCNC(=N)N)C(=O)N[C@@H](CCCNC(=N)N)C(=O)N[C@@H](C)C(=O)N[C@@H](CCCNC(=N)N)C(=O)N[C@@H](CCC(=O)O)C(=O)N[C@@H](Cc1ccccc1)C(=O)N[C@H](C(=O)N[C@@H](CCC(N)=O)C(=O)N[C@@H](Cc1c[nH]c2ccccc12)C(=O)N[C@@H](CC(C)C)C(=O)N[C@@H](CC(C)C)C(=O)N[C@@H](CCCCNC(=O)CC[C@H](NC(=O)CC[C@H](NC(=O)CC[C@H](NC(=O)CCCCCCCCCCCCCCCCC(=O)O)C(=O)O)C(=O)O)C(=O)O)C(=O)N[C@H](C(N)=O)[C@@H](C)O)C(C)C [Example 41, N^ε28-[(4S)-4-carboxy-4-[[(4S)-4-carboxy-4-[[(4S)-4-carboxy-4-(17-carboxyheptadecanoylamino)butanoyl]amino]butanoyl]amino]butanoyl]-[Aib2,Leu10,Glu15, Arg20,Glu21,Leu27,Lys28]-Glucagon amide] (H-H[Aib]QGTFTSDLSKYLESRRAREFVQWLLK([γGlu-γGlu-γGlu-C18 diacid])T-NH2; N-terminus assumed)
300	3	CC(C)C[C@H](NC(=O)[C@H](Cc1ccc(O)cc1)NC(=O)[C@H](CCCCN)NC(=O)[C@H](CO)NC(=O)[C@H](CC(C)C)NC(=O)[C@H](CC(=O)O)NC(=O)[C@H](CO)NC(=O)[C@@H](NC(=O)[C@H](Cc1ccccc1)NC(=O)[C@@H](NC(=O)CNC(=O)[C@H](CCC(N)=O)NC(=O)C(C)(C)NC(=O)[C@@H](N)Cc1c[nH]cn1)[C@@H](C)O)[C@@H](C)O)C(=O)N[C@@H](CCC(=O)O)C(=O)N[C@@H](CO)C(=O)N[C@@H](CCCNC(=N)N)C(=O)N[C@@H](CCCNC(=N)N)C(=O)N[C@@H](C)C(=O)N[C@@H](CCCNC(=N)N)C(=O)N[C@@H](CCC(=O)O)C(=O)N[C@@H](Cc1ccccc1)C(=O)N[C@H](C(=O)N[C@@H](CCC(N)=O)C(=O)N[C@@H](Cc1c[nH]c2ccccc12)C(=O)N[C@@H](CC(C)C)C(=O)N[C@@H](CC(C)C)C(=O)N[C@@H](CCCCNC(=O)COCCOCCNC(=O)COCCOCCNC(=O)CC[C@H](NC(=O)CC[C@H](NC(=O)CC[C@H](NC(=O)CCCCCCCCCCCCCCCCC(=O)O)C(=O)O)C(=O)O)C(=O)O)C(=O)N[C@H](C(N)=O)[C@@H](C)O)C(C)C [Example 42, N^ε28-[2-[2-[2-[[2-[2-[2-[[(4S)-4-carboxy-4-[[(4S)-4-carboxy-4-[[(4S)-4-carboxy-4-(17-carboxyheptadecanoylamino)butanoyl]amino]butanoyl]amino]butanoyl]amino]ethoxy]ethoxy]acetyl]amino]ethoxy]ethoxy]acetyl]-[Aib2,Leu10,Glu15,Arg20,Glu21,Leu27,Lys28]-Glucagon amide] (H-H[Aib]QGTFTSDLSKYLESRRAREFVQWLLK([AEEA-AEEA-γGlu-γGlu-γGlu-C18 diacid])T-NH2; N-terminus assumed)

From patent US9474790B2, “Stable, protracted GLP-1/glucagon receptor co-agonists for medical use” (Novo Nordisk A/S, priority 2013, dated 2016)
